Source: PMC8233378, “Acyclic nucleoside phosphonates with adenine nucleobase inhibit Trypanosoma brucei adenine phosphoribosyltransferase in vitro” (Scientific Reports, 2021)

Assays:
[1] = system: Leishmania donovani APRT1; design: method as in PMID 11900545; conditions: substrate of Leishmania donovani APRT1; cited from earlier work
HeLa S3 cells = experiment: Cytotoxicity of the prodrug in human cells (CellTiter-Glo 2.0), HeLa S3; format: cell-based; conditions: HeLa S3, 10 µM
Method: (§1) Compound cytotoxicity was evaluated in Hela S3 cancer cells and non-tumor human dermal fibroblasts (NHDF). All cell lines were obtained from ATCC (Manassas, VA, USA). The cytotoxicity was assayed using CellTiter-Glo® 2.0 detection reagent (Promega, Madison, USA) according to the manufacturer’s protocol.

[2] = system: Normal human dermal fibroblasts (NHDF); experiment: Cytotoxicity of the prodrug in human cells (CellTiter-Glo 2.0), NHDF; format: cell-based; conditions: 10 µM
Method: as §1

T. brucei BSF cells = experiment: Cell cycle analysis of treated trypanosomes (microscopy, flow cytometry with propidium iodide); format: cell-based, Trypanosoma brucei
Text: The inhibition of the growth of T. brucei BSF in HMI-11 medium in single micromolar EC50 values (Table 1) was somewhat surprising considering the dispensability of APRT enzymes for these cells. […] To get deeper insights into the in vivo action of ANPs on APRT enzyme we tested their cytotoxicity on wild type cells grown in HMI-11^adenine medium. In this medium, the cells rely on the activity of the APRT enzyme to produce AMP and other […]. […] To corroborate this observation, we also tested cells with induced ectopic expression of V5-tagged APRT1 in both types of media and in the presence of the selected ANPs. […] The changes in the distribution of different cell cycle stages within a population were further assessed by flow cytometry assaying the DNA content by staining the cells with propidium iodide (Fig. 8A).
BFS trypanosomes in log phase were resuspended in HMI-11 medium to a density of 2 × 10^5 cells ml^−1. Test compounds at concentrations ranging from 1 to 16 µM were added to the cell suspension followed by 12 h incubation at 37 °C. The cell cycle analysis was performed as described previously. Briefly, approximately 2 × 10^6 cells were washed with PBS and fixed in 1 ml of 70% methanol in 1 × PBS and stored at 4 °C overnight. Following a PBS wash, samples were incubated with 10 µg/ml propidium iodide and 9.6 µg/ml of RNaseA at 37 °C for 45 min. Samples were analyzed on a FACS Canto II (BD) collecting 10,000 gated events.

[3] = biological target: recombinant T. brucei APRT1 (Trypanosoma brucei brucei, UniProt Q57V32); experiment: APRT1 steady-state enzyme kinetics for substrates; conditions: substrate of T. brucei APRT1
Method: To test if the newly synthesized ANPs with an adenine as a nucleobase can inhibit the activity of the APRT1 and APRT2, both enzymes were overexpressed in E. coli. […] First, we monitored the APRT1 enzyme activity by a continuous spectrophotometric assay measuring the conversion of adenine to AMP at 256 nm.
The methodology was adapted from Ref.[6]. Briefly, the enzyme kinetics of APRT1 were measured by a continuous spectrophotometric assay measuring the conversion of adenine to AMP, at 256 nm. The concentration of enzyme in the assay was 140 nM, the concentration of PRib-PP was kept at 1 mM and the adenine concentration varied from 3.75 to 60 μM. The reaction was carried out using a 1.0 cm path length with a UV Visible spectrometer 1601 (Shimadzu) in the reaction buffer (0.1 M Tris, pH 8.4; 0.11 M MgCl2; at 25 °C). The initial velocity (V0 [µM/min]) was calculated using Beer–Lambert law for different concentration of the purine substrate molecules: A = Δε × L × c where A is the measured absorbance, Δε is constant 2100 M^−1 cm^−1 for adenine, c is a concentration of the product formed in one minute (V0) and L is the length of a cuvette. The Km, Vmax and kcat values were calculated using GraphPad Prism 9 according to Michaelis–Menten kinetics. […] The Ki values were calculated using non-linear regression in GraphPad Prism 9.

[4] = substrate: Nc1ncnc2nc[nH]c12; experiment: purified protein, by the assay type; conditions: other: substrate of T. brucei APRT1; pH 8.4; 25.0 °C
Text: The APRT1 was purified as an active recombinant enzyme from the soluble fraction. […] First, we monitored the APRT1 enzyme activity by a continuous spectrophotometric assay measuring the conversion of adenine to AMP at 256 nm.

Molecule: Nc1ncnc2[nH]cnc12 [adenine]
- Kcat [1]: 17.9 s⁻¹
- Km [1]: 2.3 ± 1.1 µM

Molecule: CCOC(=O)[C@H](Cc1ccccc1)NP(=O)(CCN(CCN(CCP(=O)(N[C@@H](Cc1ccccc1)C(=O)OCC)N[C@@H](Cc1ccccc1)C(=O)OCC)CCP(=O)(N[C@@H](Cc1ccccc1)C(=O)OCC)N[C@@H](Cc1ccccc1)C(=O)OCC)CCn1cnc2c(N)ncnc21)N[C@@H](Cc1ccccc1)C(=O)OCC [compound 28, Hexa-(ethyl L-phenylalanine) prodrug of (2-((2-((2-(adenine-9-yl)ethyl)(2-phosphonoethyl)amino)ethyl)(2-phosphonoethyl)amino)ethyl)phosphonic acid]
- Cytotoxicity of prodrug: HeLaS3 viability (HeLa S3 cells): 94%
- effect on viability of NHDF (in words) [2]: toxic
- Cytotoxicity of prodrug: NHDF viability ([2]; NHDF): 4%
- direct microscopic observation of exposed T. brucei cells (T. brucei BSF cells): problems in the cell cycle

Molecule: O=P(O)(O)OC[C@H]1O[C@H](OP(=O)(O)OP(=O)(O)O)[C@H](O)[C@@H]1O [phosphoribosyl pyrophosphate (PRib-P), 5-phospho-α-D-ribosyl-1-pyrophosphate]
- Kcat [3]: 1.8 s⁻¹
- Km [3]: 162 ± 21.6 µM
- Km [1]: 25.1 ± 5.9 µM

B1: recombinant T. brucei APRT1 (Trypanosoma brucei brucei TREU927) (protein)
chain: SLVEVLPNYFTLSKDSPLRKKFEKVYKWYSPAFSPHDVPRFAEVGNITENPEVMRGIRDFFVDRYKNLQQPITHILGFDSRGFLLGPMIAVELNVPFVLIRKANKIAGVIIKSEPYTKEYAAESEECMTVRFGSFDKNSRVVLIDDVIATGGTMLAGVQLVDACGATLVEVAGILGLTFLKGTQPAHTFAGGRYSNVPFVTLVDETVLSDENCGDPLHHKGSRIISCAEAKKLI
- Km [4]: 8.7 ± 1.9 µM
- kcat [4]: 0.82 s⁻¹
